Measured values as given in patent US20070032520A1, “Indol-5-yl sulfonamide derivatives, their preparation and their use 5-ht-6 as modulators” (Laboratorios Del Dr. Esteve S.A, priority 2003, published 2007).

Row | melting point [°C] | Structure (SMILES)
1 | 179 to 181 | CN(C)CCn1ccc2cc(NS(=O)(=O)c3cccc4ccccc34)ccc21 [Example 3, N-[1-(2-dimethylaminoethyl)-1H-indole-5-yl]-naphthalene-1-sulfonamide]
2 | 172 to 174 | CN(C)CCn1ccc2cc(NS(=O)(=O)c3cccc4c(Cl)cccc34)ccc21 [Example 4, N-[1-(2-dimethylaminoethyl)-1H-indole-5-yl]-5-chloronaphthalene-1-sulfonamide]
3 | 50 to 52 | CN(C)CCn1ccc2cc(NS(=O)(=O)c3c(Cl)nc4sccn34)ccc21 [Example 11, N-[1-(2-dimethylaminoethyl)-1H-indole-5-yl]-6-chloroimidazo[2,1-b]thiazole-5-sulfonamide]
4 | 124 to 126 | CN(C)CCn1ccc2cc(NS(=O)(=O)c3cc(Cl)cc(Cl)c3)ccc21 [Example 12, N-[1-(2-dimethylaminoethyl)-1H-indole-5-yl]-3,5-dichlorobenzenesulfonamide]
5 | 114 to 116 | CN(C)CCn1ccc2cc(NS(=O)(=O)c3cccc(Br)c3)ccc21 [Example 13, N-[1-(2-dimethylaminoethyl)-1H-indole-5-yl]-3-bromobenzenesulfonamide]
6 | 120 to 123 | CN(C)CCn1ccc2cc(NS(=O)(=O)c3cc(Cl)c(Cl)s3)ccc21 [Example 20, N-[1-(2-dimethylaminoethyl)-1H-indole-5-yl]-4,5-dichlorothiophene-2-sulfonamide]
